Assay results from patent publication US20230020401A1, “METABOLIC REPROGRAMMING OF IMMUNE CELLS TO ENHANCE THE EFFICACY OF PROPHYLACTIC AND T[…]” (priority 2019, published 2023).

Columns and labels:
[1] = tested on: plasma cells (CD138+ cells); assay: Plasma cell (PC) differentiation in vitro; type: cell-based
Description: Cells were treated either with Etomoxir to prevent fatty acid oxidation or with 2-deoxy-D-glucose (2DG) to […] to see the effect of fatty acid oxidation in plasma cell differentiation.

IgG1 GC B cells = assay: SRBC immunization of mice with Mdivi-1 treatment (GC and memory B cells); type: in vivo
[2] = tested on: immune cells (GC B cells, memory B cells, non-B cells); assay: Mitochondrial mass of immune cells in vivo after SRBC immunization with SBP-AS08; parameters: species or system mice
Description: Seven mice each in two group were immunized with SRBC on Day 0 and Day 4. One group on Day 3 and Day 7 were given SBP-A508 at 2.5 mg/kg. GC B cells were MACS and stained with Tomm20 (red) to stain mitochondria and DAPI to stain nucleus on Day 15. Cells were imaged using confocal microscope.
In another experiment, mice each in two group were immunized with SRBC on Day 0 and Day 5. One group of mice was also injected with SBP-A508 on Day 7 and Day 10. […] Day 15 post immunization, mice were sacrificed and spleens were harvested. Cells were incubated in Mitotracker red dye 200 nM per ml of RPMI for 15 mins at culture conditions. Cells were further stained with surface antibodies B220, CD38, Fas to determine B cells, Germinal Center and non-B cells populations.

IgG1 memory cells [3] = assay: Effect of Mdivi-1 on IgG1 memory cells formation 6 months post immunization; type: in vivo
IgG1 memory cells [4] = assay: SRBC immunization Day 0 with SBP-AS08 on day 2, IgG1 memory cells; type: in vivo, mice; conditions: SRBC with SBP-AS08 vs SRBC alone
Description: Seven mice were immunized with SRBC Day 0, and further injected with SBP-AS08 on day 2. Then, serum from immunized mice was incubated with SRBC and stained by anti-mouse IgG1 antibody to detect the SRBC specific IgG1 antibody. FIG. 12A is the graph showing absolute number of IgG1 memory cells in SRBC alone and SRBC with SBP-A508, indicating the increase of IgG1 memory cells in the mice injected with SBP-AS08.

NP specific B cells = assay: NP-CGG immunization with Mdivi-1 (day 2, 5, 8) and rechallenge on day 61; type: in vivo, mice
Description: FIG. 12C is a schematic of an experimental design of multiple injections of Mdivi-1 (SBP-A508) for studying NP-CGG immunization along with or without SBP-A508 treatment. As shown, mice were injected with NP-CGG on day 0, and further injected with SBP-A508 on day 2, Day 5, and Day 8 at a dose of 2.5 mg/kg each. Then, a boost immunization (rechallenge) was given on day 61. Mice were bleed on day 82 for further analysis. FIG. 12D is a bar graph in log scale showing the NP-2 specific antibody production measured by ELISA in control and SBP-AS08 treated group upon rechallenge with NP-CGG in PBS on Day 61. Mice were bleed on Days 0, 60, 68, 75 and 82.
FIG. 13A depicts an experimental design for studying NP-CGG immunization along with or without Mdivi-1 treatment. Briefly, Mdivi-1 treatments were performed at least three times after immunization (day 2, day 5, and day 8), and the blood samples from the subject were analyzed at 2 months after the immunization. […] Mice were bleed on days 0, 60, 68, 75 and 82.
Mice were immunized with NP-CGG and treated with Mdivi-1 at least three times after immunization (day 2, day 5, and day 8). Then, a boost immunization (rechallenge) was given on day 61. Mice were bleed on day 82 for further analysis. […] Mice were bleed on days 0, 60, 68, 75 and 82 after immunization with NP-CGG. […] As shown in FIGS. 17A-B, Mdivi-1 treated mice replenished their memory B cell pool.

[5] = tested on: T follicular helper (TFh) cells; assay: T follicular helper (TFh) cells in Mdivi-1 treated mice; type: in vivo
Source text: […] Dot plots shown in FIG. 18B show the frequencies of TFh cells. […] Similarly, FIGS. 23A-B show flow plots (FIG. 23A) and graph (FIG. 23B) displaying enrichment of T follicular helper cells in mice treated with Mdivi-1.

IgG1 memory B cells = assay: SRBC immunization, Mdivi-1 once on Day 3, analysis on day 11 (IgG1 memory and memory precursor cells, antibodies); type: in vivo, mice
Description: Mice were immunized with Sheep red blood cells (SRBC) to mount an immune response. One group was treated with Mdivi-1 once at the dose of 2.5 mg/kg on Day 3. Blood samples of all groups were analyzed on day 11 after initial immunization.
FIGS. 21A-B show increased IgG1 memory cell population upon Mdivi-1 treatment. […] show flow plots showing IgG1 population and gating memory B cells in immunized control and Mdivi-1 treated mice.
FIG. 22A show two flow plots showing population of SRBC-specific IgG1 memory precursors in control and Mdivi-1 treated group (right upper boxes). FIG. 22B is the graph showing frequencies of IgG1 memory precursors.
Sera was incubated with SRBC to bind all the SRBC specific antibody, followed by staining SRBCs with anti-IgG1 to determine the SRBC specific IgG1 in control and Mdivi-1 treated group of mice.

IgM and IgG1 cells = assay: Confocal imaging of mitochondria organization upon BCR stimulation; type: cell-based; conditions: BCR+Mdivi-1
H1N1 = assay: Flu vaccine with Mdivi-1, lethal H1N1 challenge; type: in vivo, mice
Description: 4 groups of ten mice each (6-8 weeks) were vaccinated intra-nasally with flu vaccine (vaccine group and vaccine+Mdivi-1 (SBP AS-08) group) or saline (No Vaccine group). In day 3, vaccine+Mdivi-1 (SBP AS-08) group and Mdivi-1 only group were administered with 2.5 mg/kg dose of Mdivi-1 (SBP AS-08), while all other groups were administered with saline. In day 60, all groups were administered with a lethal dose of H1N1. FIG. 28A is an individual dot graph showing the weight of mice in each group post lethal H1N1 viral infection. For each time point, dot or a group of dots from left to right represent the sample fo no vaccine, SBP-AS08 only, vaccine only, and vaccine and SBP-AS08, respectively. […] Mice were sacrificed if the weight reached 70% of their original weight or appeared very sick. N=10 per group, *p=0.04, ** p=0.001, ***p=0.0001, ****p<0.0001.
Mice from each group were also sacrificed on Day 7 post lethal influenza infection.

SRBC specific antibody = assay: SRBC immunization in older age mice with Mdivi-1; type: in vivo; conditions: 14-24 months old mice; 2.5 mg/kg day 3; day 11
Description: 2 groups of eight mice each (14-24 months old age) were immunized intraperitoneally with sheep red blood cells (SRBC). In day 3, one group (SRBC group) was administered with saline, and another group (SRBC+Mdivi-1 (SBP-AS08)) was administered with 2.5 mg/kg dose of Mdivi-1 (SBP AS-08). FIG. 30B and FIG. 30C show scatter plots of SRBC specific anti-IgM antibody or SRBC specific anti-IgG1 antibody of two groups in day 11 after administration of SRBC, respectively. Each dot represents each individual mice in each group.

SARS-CoV2 specific cells = assay: SARS-CoV2 S1 subunit vaccine with Mdivi-1 (SBP-AS08) in mice; type: in vivo
pseudo SARS-CoV2 virus = type: cell-based, human
[6] = tested on: mouse pancreatic cancer cells; assay: Neo-antigen vaccine with SBP-AS08 in mouse pancreatic cancer model; type: in vivo, mice; conditions: Kaplan Meier
Description: The effect of Mdivi-1 (SBP-AS08) in boosting immunity can be extrapolated to other diseases related to specific immune response (e.g., cancer, etc.). FIG. 36A is a schematic of an experimental layout to test the effect of Mdivi-1 (SBP-AS08) in mouse cancer model. In this experiment, mouse pancreatic cancer cell line lysate was used as the vaccine. 200,000 mouse pancreatic cancer cells were injected in 10 (C57/B6) mice per group via tail vein. Effectiveness of the vaccine was tested by analyzing the metastasis of the cancer cells from the pancreas to lungs (FIG. 36B). Lungs tissues were collected from group of vaccine and vaccine with SBP-AS08 on Day 22 post injections. Two more groups with no treatment and only SBP-AS08 treatment were also included in the analysis.
FIG. 37A and FIG. 37B show Kaplan Meier survival curve of mice that are unvaccinated, treated with SBP-AS08 only, treated with vaccine, or treated with vaccine and SBP-AS08.

[7] = Mdivi-1 two days post immunization
[8] = 2.5 mg/kg Day 3 and Day 7, mitotracker red MFI, Day 15
[9] = injected Day 7 and Day 10, spleen Day 15, Mitotracker red
[10] = single injection 2.5mg/kg Day 3, Day 15

Q: For `CCOC(=O)[C@@]1(CCCCCCOc2ccc(Cl)cc2)CO1` [Etomoxir], which “number of CD138+ cells” value [1] is on record?
A: substantially increased

Q: `COc1cc(-n2c(=S)[nH]c3ccccc3c2=O)c(Cl)cc1Cl` [Mdivi-1, 3-(2,4-dichloro-5-methoxyphenyl)-2,3-dihydro-2-thioxo-4(1H)-quinazolinone] was tested. Which “frequencies of GC B cells” value (IgG1 GC B cells; Mdivi-1 twice, each 3 days after SRBC, vs control) did it give?
A: increased

Q: And the “IgG1 memory B cells” value (IgG1 GC B cells; [7])?
A: significant increase

Q: And the “longevity of IgG1 memory B cells” value (IgG1 GC B cells; [7])?
A: significant increase

Q: And the “mitochondrial mass of IgG1 memory B cells” value (IgG1 GC B cells; [7])?
A: significant increase

Q: What about the “mitochondrial mass of IgG1 GC B cells” value (IgG1 GC B cells; Mitotracker green MFI) of the same compound?
A: enhances

Q: What about the “IgG1 B cell loss through mitochondrial fragmentation and apoptosis” value (IgG1 GC B cells; SRBC immunization) of the same compound?
A: prevents IgG1 B cell loss

Q: And the “survival of IgG1 GC B cells” value (IgG1 GC B cells; active caspase-3, flow cytometry)?
A: enhances

Q: And the “mitochondrial mass of germinal center B cells” value [2, 8]?
A: enhances

Q: What about the “mitochondrial mass of memory B cells” value [2, 8] of the same compound?
A: enhances

Q: And the “mitochondrial mass of B cells” value [2, 9]?
A: significantly increased

Q: And the “mitochondrial mass of non-B cells” value [2, 9]?
A: significantly increased

Q: And the “immune memory formation (IgG1 expressing memory B cells)” value (IgG1 memory cells [3])?
A: facilitates immune memory formation

Q: What about the “absolute number of IgG1 memory cells” value (IgG1 memory cells [4]) of the same compound?
A: increase

Q: And the “frequency of NP specific B cells” value (NP specific B cells; 2 months after immunization, vs control)?
A: substantial increase

Q: And the “memory B cell pool” value (NP specific B cells; after rechallenge)?
A: replenished

Q: What about the “number of NP specific IgG1 memory cells” value (NP specific B cells; after rechallenge, vs control) of the same compound?
A: significantly increased

Q: And the “number of NP specific immune cells” value (NP specific B cells; after rechallenge, vs control)?
A: significantly increased

Q: And the “antigen specific antibody generation after antigen boost” value (NP specific B cells; rechallenge with NP-CGG in PBS on Day 61)?
A: substantially increased

Q: And the “mice showing secondary response upon recall” value (NP specific B cells; upon recall, control group 33%)?
A: 100%

Q: What about the “NP specific antibody production measured by ELISA” value (NP specific B cells; vs control) of the same compound?
A: increased

Q: What about the “frequency of TFh cells” value ([5]; FIG. 18B, vs control) of the same compound?
A: substantially increased

Q: And the “T follicular helper cells” value ([5]; FIGS. 23A-B)?
A: enrichment

Q: What about the “PD-1 molecule expression on T follicular helper cells (median fluorescent intensity)” value ([5]; vs nontreated control group) of the same compound?
A: higher

Q: What about the “IgG1+CD38+ cell population (IgG1 memory B cells)” value (IgG1 memory B cells; 2.5 mg/kg once on Day 3, day 11) of the same compound?
A: substantially increased

Q: What about the “frequencies of SRBC-specific IgG1 memory precursors” value (IgG1 memory B cells; FIG. 19) of the same compound?
A: significantly increased

Q: What about the “IgG1+CD38+ cell population (memory precursors cells)” value (IgG1 memory B cells; FIGS. 22A-B) of the same compound?
A: substantially increased

Q: And the “efficacy of immunization (total IgG and SRBC specific IgG antibodies)” value (IgG1 memory B cells; FIGS. 24A-B)?
A: increases the efficacy of immunization

Q: And the “mitochondrial fission in BCR treated cells” value (IgM and IgG1 cells)?
A: prevents the mitochondrial fission

Q: What about the “protection against fatal influenza infection (event free survival)” value (H1N1; 2.5 mg/kg day 3 after flu vaccine, lethal H1N1 day 60) of the same compound?
A: boosts the protection

Q: What about the “disease progression post H1N1 (lung histology)” value (H1N1; Day 7 post lethal influenza infection, H&E) of the same compound?
A: reduces the disease progression

Q: What about the “SRBC specific anti-IgG1 antibody” value (SRBC specific antibody) of the same compound?
A: substantially increased

Q: What about the “efficacy of the vaccine after rechallenge (S1 specific antibody titers in serum)” value (SARS-CoV2 specific cells; 2.5 mg/kg Day 2 and Day 5, boost day 30, Day 37 and Day 44) of the same compound?
A: enhances the efficacy

Q: And the “number of marker-specific B cells” value (SARS-CoV2 specific cells; injections Day 2 and Day 5, Day 15, vs vaccine alone)?
A: further increased

Q: And the “number of SARS-CoV2-specific cells” value (SARS-CoV2 specific cells; [10])?
A: increased

Q: And the “number of SARS-CoV2-specific memory B cells” value (SARS-CoV2 specific cells; [10])?
A: increased

Q: What about the “number of anti-SARS-CoV2 antibody producing cells” value (SARS-CoV2 specific cells; [10]) of the same compound?
A: increased

Q: What about the number of splenocytes (SARS-CoV2 specific cells; [10]) of the same compound?
A: increased

Q: What about the “% of neutralizing antibody titers (SARs-Cov2 pseudovirus neutralization)” value (pseudo SARS-CoV2 virus) of the same compound?
A: higher

Q: What about the “survival of tumor bearing mice” value [6] of the same compound?
A: increases the survival

Q: With `O=CC[C@@H](O)[C@H](O)[C@H](O)CO` [2DG, 2-deoxy-D-glucose] as the compound, how does the “number of CD138+ cells” value [1] read?
A: substantially decreased
